Reference: patent US20250241878A1, “TYROSINE AND RESVERATROL DERIVATIVES AS NOVEL MODULATORS OF CELLULAR SERINE ADP-RIBOSYLATION” (UNIVERSITY OF SOUTH CAROLINA, priority 2022, published 2025)

Legend:
PheRSα/β = PheRSα/β protein levels in cortical neurons (Western blot); format: cell-based, rat
Protocol: Primary cortical neurons were dissected from E18 Sprague Dawley rat pups in Hibernate E (BrainBits®) and dissociated using the Neural Tissue Dissociation kit (Miltenyi Biotec). Minced cortices were incubated in a pre-warmed enzyme mix at 37° C. for 15 min; tissues were then triturated and strained using a 40 μm cell strainer. After washing and centrifugation, neurons were seeded in 50 μg/ml poly-D-Lysine (Sigma-Aldrich) coated tissue culture plates. NBActive-1 medium (BrainBits®) supplemented with 100 U/ml of Penicillin-Streptomycin (Life Technologies™), 2 mM L-Glutamine (Life Technologies™), and 1×N21 supplement (R&D Systems™) was used as culture medium. For preparation of culture medium containing reduced tyrosine, the components of NBActive-1 medium were altered to combined with a reduced concentration of tyrosine, as mentioned in Table 1, and was supplemented with 100 U/ml of Penicillin-Streptomycin (Life Technologies™), 2 mM L-Glutamine (Life Technologies™), and 1×N21 supplement (R&D Systems™) to obtained culture medium with reduced tyrosine. Control (non-targeting), TyrRS, and PARP1 siRNAs were obtained from Invitrogen™ (#AM4635, s443, and s130207, respectively). Rat cortical neurons at 5 DIV were transfected with 75 nM control or TyrRS siRNA using DharmaFECT™ 3 Transfection Reagent. A second transfection was done two days later using 75 nM of TyrRS siRNA, followed by cell collection or assays after another 48 hr. For PARP1 siRNA, neurons at 7 DIV were transfected with 75 nM siRNA for both control and PARP1 siRNA.
(§1) Cultured neurons (DIV 9-10) were washed once with cold 1×PBS and lysed in cell lysis buffer (20 mM Tris-HCl (pH 7.5), 150 mM NaCl, 1 mM Na2EDTA, 1 mM EGTA, 1% Triton™, 2.5 mM sodium pyrophosphate, 1 mM beta-glycerophosphate, 1 mM Na3VO4, 1 μg/ml leupeptin supplemented with protease inhibitor). The lysates were centrifuged at 10,000 RPM for 15 mins at 4° C. to separate the chromatin-bound and soluble fractions. Lysates were quantified using Bio-Rad™ Protein Assay and equal amounts of protein were loaded onto a 4 to 12% gradient gel (Invitrogen™ NuPAGE™). Protein was transferred from the gel to 0.2 μm NC membranes at 25 V for 10 mins using transfer stacks (iBlot™ 2-Invitrogen™) and blocked with 5% non-fat milk in TBST (10 mM Tris-HCl pH 8.0, 150 mM NaCl, 0.01% Tween-20) for 1 hr before application of primary antibodies. Primary and secondary antibodies were incubated overnight at 4° C. and for 1 hr at room temperature, respectively. Immobilon® ECL Ultra Western HRP Substrate (WBULS0500, Millipore™) and a luminescent image analyzer (ChemiDoc™ Imaging System, Bio-Rad™) were used to detect proteins. Quantification of western blots was done using ImageJ (Version 1.53c).
The various compounds used for treatments and their stock concentrations in Table 4.

eIF2α = assay: p-eIF2α Western blot in cortical neurons; format: cell-based, rat; conditions: compound alone
Protocol: Primary cortical neurons were dissected from E18 Sprague Dawley rat pups in Hibernate E (BrainBits®) and dissociated using the Neural Tissue Dissociation kit (Miltenyi Biotec). […] After washing and centrifugation, neurons were seeded in 50 μg/ml poly-D-Lysine (Sigma-Aldrich) coated tissue culture plates. NBActive-1 medium (BrainBits®) supplemented with 100 U/ml of Penicillin-Streptomycin (Life TechnologiesTM), 2 mM L-Glutamine (Life TechnologiesTM), and 1×[…] supplement (R&D SystemsTM) was used as culture medium. For preparation of culture medium containing reduced tyrosine, the components of NBActive-1 medium were altered to combined with a reduced concentration of tyrosine, as mentioned in Table 1, and was supplemented with 100 U/ml of Penicillin-Streptomycin (Life TechnologiesTM), 2 mM L-Glutamine (Life TechnologiesTM), and 1×[…] supplement (R&D SystemsTM) to obtained culture medium with reduced tyrosine. […] For PARP1 siRNA, neurons at 7 DIV were transfected with 75 nM siRNA for both control and PARP1 siRNA. […] The lysates were centrifuged at 10,000 RPM for 15 mins at 4° C. to separate the chromatin-bound and soluble fractions. Lysates were quantified using Bio-RadTM Protein Assay and equal amounts of protein were loaded onto a 4 to 12% gradient gel (InvitrogenTM NuPAGETM). […] Quantification of western blots was done using ImageJ (Version 1.53c).

HPF1 = HPF1 levels immunoblot in cortical neurons; format: cell-based, rat; conditions: compound alone
Protocol: FIG. 5A presents immunoblots showing the protein levels of HPF1 in rat cortical neurons (DIV9-10) after treatment with Tyr ([…]) for up to 8 hr.
as §1

cleaved caspase-3 = assay: Cleaved caspase-3 immunoblot; format: cell-based, rat; conditions: compound alone; trans-RSV at high concentration
Protocol: FIG. 17E presents immunoblots showing the levels of cleaved caspase-3 in rat cortical neurons (DIV 9/10) after the treatment with D-Tyr (2 mM) for 16 hr.

AcK56-H3 and AcK16-H4 = assay: Histone acetylation immunoblot (AcK56-H3, AcK16-H4); format: cell-based, rat; design: dose or concentration left out as unconfirmed
neuronal chromatin = assay: Chromatin fraction immunoblots of cortical neurons; format: cell-based, rat; conditions: compound alone
Protocol: as §1

[1] = system: interaction of PARP1 with histone H3; assay: PARP1 immunoprecipitation probed for H3; format: cell-based, rat
Protocol: FIG. 18A presents representative immunoblots and quantification of the interaction of H3 with PARP1. […] The interaction of PARP1 with H3 was determined using anti-H3 antibody.

rat cortical neurons = assay: MTT cell viability assay; design: effect on neurotoxicity induced by etoposide (ETO) / effect on neurotoxicity induced by oxidative stress (H2O2) / effect on neurotoxicity induced by mitochondrial inhibition (MPP+) / neurotoxicity (viability): dose or concentration left out as unconfirmed; conditions: for effect on D-Tyr mediated neurotoxicity: combination with D-Tyr
Protocol: Rat cortical neurons (DIV9-11) were exposed to different treatments (NMDA, ETO, H2O2, MPP+) after seeding 20,000 cells/well in 96-well plates. Cell viability was then assessed at 48 hr after the initial exposure to NMDA. 3-[4,5-dimethylthiazole-2-yl]-2,5-diphenyltetrazolium bromide (MTT) assays were used to assess change in cell viability. […] Cultured rat cortical neurons were incubated with MTT (0.5 mg/mL). In the MTT assay, after 2 hr incubation, the insoluble purple product formazan resulting from the reduction of MTT by NAD (P) H-dependent oxidoreductases present in cells with viable mitochondria was solubilized in dimethyl sulfoxide at room temperature, under agitation, and protected from light. The percentage of MTT reduced as measured by the difference between the absorbances at 570 nm read in a spectrophotometer (SpectraMax® 190R Molecular Devices, UK).

OGG1 = OGG1 levels Western blot in cortical neurons; format: cell-based, rat
Protocol: FIG. 4C presents primary cortical neurons treated with Tyr ([…]) for 8 hr, and OGG1 was detected by Western Blot analysis using anti-OGG1 antibody.
as §1

PARP1 = conditions: previously observed; cited from earlier work

| SMILES | p-eIF2α levels (eIF2α) | HPF1 levels (HPF1) | levels of cleaved caspase-3 (cleaved caspase-3) | PARylated proteins in the chromatin fraction (neuronal chromatin) | association of PARP1 with the chromatin (neuronal chromatin) | recruitment of ARH3 to the chromatin (neuronal chromatin) | recruitment of PARP2, HPF1 and OGG1 to the chromatin (neuronal chromatin) | effect on neurotoxicity induced by etoposide (ETO) (rat cortical neurons) | effect on neurotoxicity induced by mitochondrial inhibition (MPP+) (rat cortical neurons) | effect on neurotoxicity induced by oxidative stress (H2O2) (rat cortical neurons) | effect on D-Tyr mediated neurotoxicity (rat cortical neurons) | auto-PARylation of PARP1 (PARP1) | also measured |
| --- | --- | --- | --- | --- | --- | --- | --- | --- | --- | --- | --- | --- | --- |
| Oc1ccc(/C=C/c2cc(O)cc(O)c2)cc1 [trans-RSV, trans-resveratrol] | sustained the inhibition of eIF2α | decreased HPF1 levels | increased the levels of cleaved caspase-3 | increased the levels of PARylated proteins in the chromatin fraction | increased the association of PARP1 with the chromatin | differential effects on the recruitment of ARH3 to the chromatin | prevented their recruitment | did not protect against these neurotoxic agents | did not protect against these neurotoxic agents | did not protect against these neurotoxic agents | protected against D-Tyr mediated neurotoxicity but not trans-RSV |  | PheRSα levels (PheRSα/β; high concentration trans-RSV): decreased PheRSβ, not PheRSα levels; PheRSβ levels (PheRSα/β; high concentration trans-RSV): decreased PheRSβ; AcK16-H4 acetylation (AcK56-H3 and AcK16-H4; trans-RSV): inhibited H3 and H4 acetylation at lysines 56 and 16; AcK56-H3 acetylation (AcK56-H3 and AcK16-H4; trans-RSV): inhibited H3 and H4 acetylation at lysines 56 and 16; interaction of PARP1 with histone H3 ([1]; higher concentrations (≥25 mM) of trans-RSV): increased it; interaction of PARP1 with histone H3 ([1]; low concentrations of trans-RSV): prevented the interaction of PARP1 with histone H3; neurotoxicity (viability) (rat cortical neurons): by itself was neurotoxic; effect on NMDA mediated neurotoxicity (rat cortical neurons; higher concentrations of trans-RSV (≥25 mM)): exacerbated the toxicity; effect on NMDA mediated neurotoxicity (rat cortical neurons; low concentrations of trans-RSV (≤10 mM)): evoked protective effects |
| Oc1ccc(/C=C\c2cc(O)cc(O)c2)cc1 [cis-RSV, cis-resveratrol] | triggered a transient increase in the levels of p-eIF2α |  | decreased the levels of caspase-3 cleavage | activated the de-ADP-ribosylation of the chromatin fraction | resulted in its removal from the chromatin | differential effects on the recruitment of ARH3 to the chromatin | facilitated the recruitment of PARP2 along with other DNA repair factors such as HPF1 and OGG1 to the chromatin | suppressed the neurotoxicity | suppressed the neurotoxicity | suppressed the neurotoxicity | protected against D-Tyr mediated neurotoxicity | stimulate the auto-PARylation | PheRSβ and PheRSα levels (PheRSα/β; low concentration cis-RSV): increased their levels; effect on tyrosine-mediated decrease of OGG1 levels (OGG1; combination with tyrosine): rescued; AcK16-H4 acetylation (AcK56-H3 and AcK16-H4; cis-RSV): increased the acetylation of H4 lysine 16; TyrRS in the chromatin fraction (neuronal chromatin): higher levels of TyrRS; recruitment of FEN1 to the chromatin (neuronal chromatin): decreased the recruitment of FEN1; interaction of PARP1 with histone H3 ([1]; cis-RSV): prevented the interaction of PARP1 with histone H3; effect on NMDA-mediated toxicity (rat cortical neurons; cis-RSV): protected against NMDA-mediated toxicity in a concentration-dependent manner; effect on trans-RSV-mediated neurotoxicity (rat cortical neurons; combination with trans-RSV): protected against the neurotoxicity induced by trans-RSV in a dose-dependent manner |
| N[C@@H](Cc1ccc(O)cc1)C(=O)O [tyrosine, L-tyrosine] |  | decreased HPF1 levels |  |  | trapping of PARP1 |  |  |  |  |  |  | inhibits the auto-PARylation of PARP1 | PheRSβ levels (PheRSα/β; compound alone): depleted PheRSβ; levels of PheRSβ (PheRSα/β; second statement of the same sentence, see doubts): did not affect the levels of PheRSβ; OGG1 levels (OGG1; compound alone): decreased 8-oxoguanine-DNA glycosylase (OGG1) levels |
